Measured values: article PMC9964938, “Synthesis and Properties of Sucrose- and Lactose-Based Aromatic Ester Surfactants as Potential Drugs Permeability Enhancers” (Pharmaceuticals, 2023)

How the values were obtained:
[1] = test system: Calu-3 monolayers; design: method as in PMID 29970849; details: Calu-3 cells, non-cytotoxic concentration, reversible; cited from earlier work
[2] = CMC by pyrene fluorescence spectroscopy; format: physicochemical; details: pyrene I/III peak ratio, aqueous solution, 25 °C
Description: Pyrene is a common fluorescence probe, widely employed to investigate the aggregation state of surfactant in aqueous solution, as its emission properties are strongly influenced by the polarity of the microenvironment. Specifically, a decrease in the ratio between I and III peaks is observed when the hydrophobicity increases in the surroundings of pyrene as a result of the aggregation of surfactants into micelles or supramolecular aggregates. […] As is common for surfactants, the concentration at which aggregation in aqueous solution occurs is strongly dependent on the hydrophilicity/hydrophobicity balance between the surfactant head and tail. Specifically, changes in the hydrophobicity of the surfactant tail exert a marked effect on the self-assembling properties for a surfactant bearing the same polar head. On the contrary, the variation in the sugar head has a minor effect.
The pyrene emissions in the surfactant solutions at different concentrations (0.03–4 mM) were measured using a LS 55 fluorescence spectrometer (PerkinElmer, Waltar, MA, USA) equipped with a thermostatic bath HAAKE C25P (Artisan Scientific Corporation, Champaign, IL, USA). For the analyses, three microliters of the pyrene solution in CH3OH (2 μM) were added to each of the aqueous surfactant solutions. The excitation wavelength was 334 nm. Ten acquisitions were recorded for each solution in the range of 200–700 nm at a temperature of 25 °C. The peak intensity I (λ = 372 nm) to III (λ = 384 nm) ratio was plotted against the surfactant concentrations. CMC values were calculated from the center of the sigmoid by fitting the experimental data through the Boltzmann nonlinear regression (GraphPad Prism 6 software) according to the following equation: bottom+(top−bottom)/1+10^[(logCMC−x)hill slope] where the top and bottom are the plateau of the curve and the hill slope is the steepness.

[3] = test system: Calu-3 monolayers; experiment: TEER measurement; format: cell-based, human; details: Calu-3 cells; for effect on TEER: surfactant 4 mM in HBSS, 3 h; for decrease in TEER with respect to basal value: surfactant 4 mM, reversible
Protocol: TEER studies were performed in Calu-3 cells (Figure 4) to preliminarily evaluate the potential use of the synthesized sugar esters as absorption enhancers. […] .
Calu-3 cells were seeded on filter inserts Transwell® at ~200,000 cells per insert. The cells were cultured in Dulbecco Modified Eagle Medium (DMEM)-F12 to confluence for around three weeks using an air–liquid culture condition. The culture medium was changed every 48 h. […] Baseline TEER was recorded following 30 min of equilibration in HBSS. […] The cells were incubated with the samples or HBSS as a control for 3 h. During this period, TEER was measured every 30 min. The samples were then removed and the cells were washed extensively using HBSS. Culture medium was added to the basolateral chamber and a further measurement of TEER was taken at 24 h following sample application to establish TEER reversibility. The change in TEER was reported as a percentage relative to the baseline value.

[4] = CMC by dynamic light scattering (counts); format: physicochemical; details: counts vs concentration, 25 °C
Description: The DLS from the counts analysis confirmed the self-assembling properties of the amphiphiles analyzed as evidenced by the fluorescence measurements. Figure 2b reports the variation in the scattering intensities to the detector (kCps) as a function of the surfactant concentration.
As unimers, instead, the hydrodynamic sizes of the surfactant molecules were too small and the scattering properties of the solutions were not markedly different from those of the medium.
The scattering intensity to the detector (counts, kCps) was measured for different concentrations (0.03–4 mM) of surfactant solution using a Malvern Zetasizer Nano S (Malvern, Worcestershire, UK). Measurements were performed at 25 °C at a fixed laser position (4.65) and attenuation (11). CMC values were calculated from counts versus concentration plots by fitting the experimental data using the segmental linear regression model (GraphPad Prism 6 software).

[5] = test system: Calu-3 monolayers; experiment: FITC-dextran in vitro cell permeability study; details: surfactant 4 mM
Protocol: Cell monolayers with TEER over 800 Ω were used in these studies to ensure the integrity of the monolayers. FITC-dextran MW 4000 was used as a model macromolecular drug. Prior to sample application, the culture medium was removed, and the cell layers were washed with HBSS. The cells were equilibrated in HBSS for 30 min. Sucrose ester solutions at 4 mM and dextran at a final concentration of 0.5 mg/mL in HBSS were applied to the apical side of the cells. HBSS was added to the basolateral side. A basolateral solution of 100 µL was collected at 30, 60, 90, 120, 150, and 180 min after sample application and replaced with an equivalent volume of fresh HBSS. The amount of dextran permeating the cell monolayers in 3 h was quantified by spectrofluorometric analysis.

[6] = test system: Calu-3 cells; experiment: MTT cell viability assay; format: cell-based, human; details: 3 h incubation
Protocol: All the compounds were tested to evaluate their cytotoxicity profile on Calu-3 cells. The MTT colorimetric assay, based on the reduction of a yellow tetrazolium salt MTT to purple formazan crystals by metabolically active cells, was used to measure the cellular metabolic activity as an indicator of cell viability, proliferation, and cytotoxicity. Indeed, the viable cells contain NAD(P)H-dependent oxidoreductase enzymes, which reduce MTT to formazan. […] Moreover, the LDH release assay, used to assess the level of plasma membrane damage in a cell population, was performed to evaluate the cytotoxicity of the sugar esters. LDH is in fact a stable enzyme found in all cell types and is rapidly released into the cell culture medium following damage to the plasma membrane that occurs after cell damage or death. […]
Calu-3 cells were seeded on 96-well plates at ~50,000 cells per well and were incubated to attain at least 80% confluence before the experiment. Prior to the assay, the culture medium was removed and replaced with different concentrations of surfactants (0.03 to 4.5 mM for the fluorescence spectroscopy and DLS analysis) in Hank’s balanced salt solution (HBSS). […] The supernatant was collected for the LDH assay and the cell viability was measured with the MTT assay according to the manufacturers’ instructions, with at least three repeats for each sample.

Row | Compound | TEER, % of the baseline value after decrease [1] | Fluorescence Spectroscopy CMC [2] | effect on TEER [3] | Dynamic Light Scattering CMC [4] | decrease in TEER with respect to basal value [3] | permeation enhancing effect on FITC-dextran Papp ([5]; Calu-3 cell layers, FITC-dextran MW 4000 0.5 mg/mL) | increase in FITC-dextran permeability vs control ([5]; Calu-3 cells, non-statistically significant vs control) | cell viability (MTT) ([6]; highest tested concentration of 4.5 mM) | cell viability (MTT), lowest level reached ([6]; 0.03 to 4.5 mM)
1 | CCCCCCCCCCCC(=O)OCC1OC(OC2C(CO)OC(O)C(O)C2O)C(O)C(O)C1O (stereo not shown) [6′-lactose laurate] | ~ 25% | – | – | – | – | – | – | – | –
2 | O=C(Cc1ccccc1)OC[C@H]1O[C@H](O[C@]2(CO)O[C@H](CO)[C@@H](O)[C@@H]2O)[C@H](O)[C@@H](O)[C@@H]1O [URB1480, β-D-fructofuranosyl 6-O-(2-Phenylethanoyl)-α-D-glucopyranoside] | – | 0.861 ± 0.076 mM | only poorly affected TEER | 0.791 ± 0.045 mM | – | – | – | – | –
3 | O=C(OC[C@H]1O[C@H](O[C@]2(CO)O[C@H](CO)[C@@H](O)[C@@H]2O)[C@H](O)[C@@H](O)[C@@H]1O)c1ccc(-c2ccccc2)cc1 [URB1481, β-D-fructofuranosyl 6-O-[2-(4-Phenyl)benzoyl]-α-D-glucopyranoside] | – | 0.305 ± 0.091 mM | most effective surfactants for decreasing TEER | 0.329 ± 0.023 mM | ~ 30% | more prominent permeation enhancing effect | three-fold increase | above 70% | –
4 | O=C(Cc1ccc(-c2ccccc2)cc1)OC[C@H]1O[C@H](O[C@]2(CO)O[C@H](CO)[C@@H](O)[C@@H]2O)[C@H](O)[C@@H](O)[C@@H]1O [URB1482, β-D-fructofuranosyl 6-O-[2-(4-Phenyl)phenylethanoyl]-α-D-glucopyranoside] | – | 0.095 ± 0.015 mM | moderate action | 0.181 ± 0.026 mM | – | – | – | – | –
5 | Lactose p-biphenyl acetate [URB1421] | – | 0.110 ± 0.017 mM | moderate action | 0.259 ± 0.063 mM | – | – | – | – | –
6 | Lactose p-phenyl benzoate [URB1420] | – | 0.270 ± 0.015 mM | most effective surfactants for decreasing TEER | 0.344 ± 0.034 mM | ~ 30% | – | – | – | –
7 | Lactose phenyl acetate [URB1419] | – | 0.753 ± 0.084 mM | moderate action | 0.729 ± 0.075 mM | – | – | – | – | ≥ 70%
